According to ChEMBL document CHEMBL1152560, “Substituted 2-arylbenzothiazoles as kinase inhibitors: hit-to-lead optimization” (Bioorg Med Chem, 2009):

How the values were obtained:
[1] = target: 5'-AMP-activated protein kinase catalytic subunit alpha-1 (Homo sapiens) (UniProt Q13131); assay: Residual activity of AMPK-alpha1 fl at 1 uM by microplate scintillation counting
[2] = target: Glycogen synthase kinase-3 beta (Homo sapiens) (UniProt P49841); assay: Residual activity of GSK3-beta at 1 uM by microplate scintillation counting
Chain of Glycogen synthase kinase-3 beta (Homo sapiens) (P49841 whole entry, looked up): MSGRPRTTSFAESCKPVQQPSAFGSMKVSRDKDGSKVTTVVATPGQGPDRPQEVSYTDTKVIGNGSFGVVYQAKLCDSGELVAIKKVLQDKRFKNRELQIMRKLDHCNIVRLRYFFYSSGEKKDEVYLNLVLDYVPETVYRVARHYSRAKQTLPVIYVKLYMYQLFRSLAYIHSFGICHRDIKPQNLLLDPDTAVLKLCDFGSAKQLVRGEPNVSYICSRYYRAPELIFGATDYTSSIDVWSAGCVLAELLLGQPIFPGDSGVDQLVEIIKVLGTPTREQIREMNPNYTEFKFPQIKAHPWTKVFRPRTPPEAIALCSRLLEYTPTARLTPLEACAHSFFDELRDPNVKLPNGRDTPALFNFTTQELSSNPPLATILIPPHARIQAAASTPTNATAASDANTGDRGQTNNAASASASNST

[3] = target: Tyrosine-protein kinase HCK (Homo sapiens) (UniProt P08631); assay: Residual activity of HCK at 10 uM by microplate scintillation counting
[4] = target: T1, Mitogen-activated protein kinase 12 (Homo sapiens) (UniProt P53778); assay: Residual activity of p38-gamma at 10 uM by microplate scintillation counting
T1 sequence (whole entry): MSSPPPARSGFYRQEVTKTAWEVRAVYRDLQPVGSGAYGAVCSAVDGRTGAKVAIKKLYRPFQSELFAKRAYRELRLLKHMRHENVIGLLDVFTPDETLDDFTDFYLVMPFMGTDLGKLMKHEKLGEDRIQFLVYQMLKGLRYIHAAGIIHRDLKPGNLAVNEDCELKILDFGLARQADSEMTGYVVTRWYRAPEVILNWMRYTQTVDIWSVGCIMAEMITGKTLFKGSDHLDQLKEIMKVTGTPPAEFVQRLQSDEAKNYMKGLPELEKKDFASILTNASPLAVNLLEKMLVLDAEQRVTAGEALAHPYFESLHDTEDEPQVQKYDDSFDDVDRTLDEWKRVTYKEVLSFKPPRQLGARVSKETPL

[5] = target: T2, Calcium/calmodulin-dependent protein kinase type IV (Homo sapiens) (UniProt Q16566); assay: Residual activity of CAMK4 at 1 uM by microplate scintillation counting
T2 sequence (whole entry): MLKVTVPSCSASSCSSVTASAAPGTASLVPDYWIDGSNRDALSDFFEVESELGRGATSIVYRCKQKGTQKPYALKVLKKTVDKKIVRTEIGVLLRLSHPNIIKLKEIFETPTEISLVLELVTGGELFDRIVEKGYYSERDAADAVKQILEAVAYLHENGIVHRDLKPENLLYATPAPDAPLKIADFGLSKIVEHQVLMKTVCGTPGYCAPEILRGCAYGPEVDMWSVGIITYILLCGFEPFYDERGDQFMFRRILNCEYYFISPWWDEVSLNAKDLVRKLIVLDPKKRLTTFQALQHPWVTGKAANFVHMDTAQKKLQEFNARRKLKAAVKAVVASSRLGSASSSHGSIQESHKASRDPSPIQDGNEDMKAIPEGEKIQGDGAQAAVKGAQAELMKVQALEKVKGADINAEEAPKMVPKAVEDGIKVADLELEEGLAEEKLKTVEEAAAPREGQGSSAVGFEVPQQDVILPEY

[6] = target: CDC42BPA protein (Homo sapiens) (UniProt B9EGA7); assay: Residual activity of CDC42BPA at 1 uM by microplate scintillation counting
Chain of CDC42BPA protein (Homo sapiens) (B9EGA7 as listed by the source): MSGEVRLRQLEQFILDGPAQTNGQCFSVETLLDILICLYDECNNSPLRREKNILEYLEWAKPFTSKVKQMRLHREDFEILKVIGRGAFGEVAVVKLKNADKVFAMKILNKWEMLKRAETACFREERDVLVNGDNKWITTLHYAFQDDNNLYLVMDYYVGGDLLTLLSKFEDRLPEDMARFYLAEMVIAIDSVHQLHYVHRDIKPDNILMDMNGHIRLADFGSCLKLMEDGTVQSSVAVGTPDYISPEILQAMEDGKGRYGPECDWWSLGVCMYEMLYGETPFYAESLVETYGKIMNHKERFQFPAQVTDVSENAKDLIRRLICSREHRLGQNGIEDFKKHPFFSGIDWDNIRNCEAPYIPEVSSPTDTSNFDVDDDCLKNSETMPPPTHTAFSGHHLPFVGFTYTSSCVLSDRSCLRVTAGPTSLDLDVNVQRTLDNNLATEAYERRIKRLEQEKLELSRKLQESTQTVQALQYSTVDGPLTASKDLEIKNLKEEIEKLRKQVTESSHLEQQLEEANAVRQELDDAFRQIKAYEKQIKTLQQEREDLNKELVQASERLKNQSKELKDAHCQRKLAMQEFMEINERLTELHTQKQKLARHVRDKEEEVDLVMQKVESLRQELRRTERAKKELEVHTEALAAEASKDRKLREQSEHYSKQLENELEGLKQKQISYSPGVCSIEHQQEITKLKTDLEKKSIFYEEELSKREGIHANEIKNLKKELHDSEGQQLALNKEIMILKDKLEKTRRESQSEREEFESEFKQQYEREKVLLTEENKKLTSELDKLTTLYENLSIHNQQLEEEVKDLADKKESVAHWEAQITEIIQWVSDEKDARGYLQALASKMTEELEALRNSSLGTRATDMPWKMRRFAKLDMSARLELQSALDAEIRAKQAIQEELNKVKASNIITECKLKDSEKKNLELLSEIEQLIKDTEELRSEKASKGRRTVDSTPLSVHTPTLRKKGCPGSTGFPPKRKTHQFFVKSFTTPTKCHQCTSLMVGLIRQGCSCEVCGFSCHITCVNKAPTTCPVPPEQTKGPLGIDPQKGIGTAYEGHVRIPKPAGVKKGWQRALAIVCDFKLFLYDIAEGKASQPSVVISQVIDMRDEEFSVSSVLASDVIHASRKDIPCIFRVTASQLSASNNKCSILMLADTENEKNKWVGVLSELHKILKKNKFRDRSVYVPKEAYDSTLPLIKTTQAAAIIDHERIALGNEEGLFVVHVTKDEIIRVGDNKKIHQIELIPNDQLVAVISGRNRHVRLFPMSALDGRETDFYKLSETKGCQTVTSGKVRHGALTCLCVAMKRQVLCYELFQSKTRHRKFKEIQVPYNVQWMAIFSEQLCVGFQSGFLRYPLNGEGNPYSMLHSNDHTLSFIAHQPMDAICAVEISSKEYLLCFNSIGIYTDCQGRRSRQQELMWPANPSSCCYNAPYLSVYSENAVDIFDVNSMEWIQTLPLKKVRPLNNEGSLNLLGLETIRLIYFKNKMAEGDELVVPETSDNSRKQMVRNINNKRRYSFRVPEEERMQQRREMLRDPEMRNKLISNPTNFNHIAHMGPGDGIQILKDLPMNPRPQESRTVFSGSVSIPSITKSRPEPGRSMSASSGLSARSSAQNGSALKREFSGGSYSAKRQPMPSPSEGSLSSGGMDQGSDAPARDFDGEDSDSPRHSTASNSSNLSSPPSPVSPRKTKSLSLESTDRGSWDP

[7] = target: T3, Serine/threonine-protein kinase Chk1 (Homo sapiens) (UniProt O14757); assay: Residual activity of CHK1 at 0.1 uM by microplate scintillation counting
T3 sequence (whole entry): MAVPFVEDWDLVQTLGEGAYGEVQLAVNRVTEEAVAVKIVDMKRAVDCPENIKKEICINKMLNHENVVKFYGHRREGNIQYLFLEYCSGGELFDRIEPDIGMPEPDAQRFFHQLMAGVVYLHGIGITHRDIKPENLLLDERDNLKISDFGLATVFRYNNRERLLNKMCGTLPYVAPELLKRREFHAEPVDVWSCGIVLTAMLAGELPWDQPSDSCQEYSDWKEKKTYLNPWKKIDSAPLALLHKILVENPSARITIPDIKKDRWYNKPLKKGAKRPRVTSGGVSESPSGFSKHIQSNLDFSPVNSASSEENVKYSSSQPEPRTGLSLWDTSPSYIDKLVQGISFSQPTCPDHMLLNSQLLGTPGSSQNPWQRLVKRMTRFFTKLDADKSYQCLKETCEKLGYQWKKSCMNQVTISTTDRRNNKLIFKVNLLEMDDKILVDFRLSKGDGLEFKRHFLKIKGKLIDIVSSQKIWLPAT

[8] = target: Mitogen-activated protein kinase 11 (Homo sapiens) (UniProt Q15759); assay: Residual activity of p38beta at 10 uM by microplate scintillation counting
Chain of Mitogen-activated protein kinase 11 (Homo sapiens) (Q15759 whole entry): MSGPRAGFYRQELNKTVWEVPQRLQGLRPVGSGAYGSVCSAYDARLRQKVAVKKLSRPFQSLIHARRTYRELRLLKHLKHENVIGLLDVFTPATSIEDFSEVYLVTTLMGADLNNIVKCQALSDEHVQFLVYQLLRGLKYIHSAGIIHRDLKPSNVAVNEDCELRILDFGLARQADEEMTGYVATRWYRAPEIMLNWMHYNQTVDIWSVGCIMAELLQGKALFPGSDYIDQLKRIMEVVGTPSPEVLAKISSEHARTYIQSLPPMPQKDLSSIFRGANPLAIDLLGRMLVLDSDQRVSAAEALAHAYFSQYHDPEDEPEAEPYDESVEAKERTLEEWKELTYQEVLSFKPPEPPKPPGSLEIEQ

[9] = target: Tyrosine-protein kinase Yes (Homo sapiens) (UniProt P07947); assay: Residual activity of YES at 10 uM by microplate scintillation counting
Chain of Tyrosine-protein kinase Yes (Homo sapiens) (P07947 2-543 limits assumed): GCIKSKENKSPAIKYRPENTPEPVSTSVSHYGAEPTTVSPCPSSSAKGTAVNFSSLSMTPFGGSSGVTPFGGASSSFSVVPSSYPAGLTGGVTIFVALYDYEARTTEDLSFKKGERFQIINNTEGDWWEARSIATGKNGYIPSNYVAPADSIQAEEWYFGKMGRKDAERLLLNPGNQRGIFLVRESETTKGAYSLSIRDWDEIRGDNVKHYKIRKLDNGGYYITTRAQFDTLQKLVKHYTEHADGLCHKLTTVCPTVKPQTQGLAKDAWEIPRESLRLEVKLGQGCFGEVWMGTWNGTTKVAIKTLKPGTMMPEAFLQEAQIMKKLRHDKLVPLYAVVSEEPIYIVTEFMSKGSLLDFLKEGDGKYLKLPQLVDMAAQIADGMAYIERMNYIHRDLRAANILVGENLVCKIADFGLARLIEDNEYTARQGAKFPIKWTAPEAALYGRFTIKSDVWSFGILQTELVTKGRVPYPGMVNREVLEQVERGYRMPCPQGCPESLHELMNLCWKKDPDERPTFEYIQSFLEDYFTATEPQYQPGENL

[10] = target: Proto-oncogene tyrosine-protein kinase receptor Ret (Homo sapiens) (UniProt P07949); assay: Residual activity of RET at 1 uM by microplate scintillation counting
Chain of Proto-oncogene tyrosine-protein kinase receptor Ret (Homo sapiens) (P07949 whole entry): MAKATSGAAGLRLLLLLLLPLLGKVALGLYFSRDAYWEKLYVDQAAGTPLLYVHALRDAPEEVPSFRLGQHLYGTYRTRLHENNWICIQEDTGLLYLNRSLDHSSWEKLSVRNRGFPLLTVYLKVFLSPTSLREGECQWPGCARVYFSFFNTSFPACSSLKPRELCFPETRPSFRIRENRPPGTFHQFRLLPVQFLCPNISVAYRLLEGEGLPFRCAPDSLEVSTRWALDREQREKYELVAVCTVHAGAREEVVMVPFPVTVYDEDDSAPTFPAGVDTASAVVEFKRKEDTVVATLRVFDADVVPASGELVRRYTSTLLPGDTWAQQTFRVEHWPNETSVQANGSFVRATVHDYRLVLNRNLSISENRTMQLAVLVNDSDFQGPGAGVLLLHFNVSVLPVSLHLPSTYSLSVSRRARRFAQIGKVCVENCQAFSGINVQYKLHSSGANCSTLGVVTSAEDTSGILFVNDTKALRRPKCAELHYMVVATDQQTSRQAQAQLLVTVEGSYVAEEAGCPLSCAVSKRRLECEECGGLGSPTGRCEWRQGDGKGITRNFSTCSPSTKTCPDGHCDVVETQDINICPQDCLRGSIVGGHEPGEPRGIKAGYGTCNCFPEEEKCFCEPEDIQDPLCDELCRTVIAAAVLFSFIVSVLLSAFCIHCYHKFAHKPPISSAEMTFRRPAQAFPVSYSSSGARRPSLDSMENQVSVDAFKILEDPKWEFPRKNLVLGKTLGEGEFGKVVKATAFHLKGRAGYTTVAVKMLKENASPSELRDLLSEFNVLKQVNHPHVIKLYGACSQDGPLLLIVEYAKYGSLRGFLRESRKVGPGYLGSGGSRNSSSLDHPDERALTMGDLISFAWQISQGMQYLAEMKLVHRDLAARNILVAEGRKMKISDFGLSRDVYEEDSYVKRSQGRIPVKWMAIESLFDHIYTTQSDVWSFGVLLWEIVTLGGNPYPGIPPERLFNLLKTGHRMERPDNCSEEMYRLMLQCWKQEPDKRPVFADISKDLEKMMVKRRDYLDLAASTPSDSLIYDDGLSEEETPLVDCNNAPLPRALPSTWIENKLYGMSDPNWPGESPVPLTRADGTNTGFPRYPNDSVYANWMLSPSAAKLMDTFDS

[11] = target: Glycogen synthase kinase-3 alpha (Homo sapiens) (UniProt P49840); assay: Residual activity of GSK3alpha at 1 uM by microplate scintillation counting
Chain of Glycogen synthase kinase-3 alpha (Homo sapiens) (P49840 2-483 limits assumed): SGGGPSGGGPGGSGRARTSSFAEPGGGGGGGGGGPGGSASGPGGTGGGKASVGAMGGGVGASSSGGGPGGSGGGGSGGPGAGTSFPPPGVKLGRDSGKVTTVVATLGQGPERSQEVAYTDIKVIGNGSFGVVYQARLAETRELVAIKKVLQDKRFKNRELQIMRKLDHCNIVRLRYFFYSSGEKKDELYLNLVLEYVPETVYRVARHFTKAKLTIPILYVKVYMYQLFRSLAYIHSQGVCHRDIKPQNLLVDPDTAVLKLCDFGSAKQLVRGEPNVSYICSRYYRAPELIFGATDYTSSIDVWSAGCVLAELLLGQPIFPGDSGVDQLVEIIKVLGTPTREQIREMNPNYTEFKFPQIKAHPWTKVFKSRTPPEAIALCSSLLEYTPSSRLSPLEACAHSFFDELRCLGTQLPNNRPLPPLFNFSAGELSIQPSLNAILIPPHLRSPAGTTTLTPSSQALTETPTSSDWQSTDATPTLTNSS

[12] = target: T4, Ephrin type-B receptor 2 (Homo sapiens) (UniProt P29323); assay: Residual activity of EPHB2 at 1 uM by microplate scintillation counting
T4 sequence (whole entry): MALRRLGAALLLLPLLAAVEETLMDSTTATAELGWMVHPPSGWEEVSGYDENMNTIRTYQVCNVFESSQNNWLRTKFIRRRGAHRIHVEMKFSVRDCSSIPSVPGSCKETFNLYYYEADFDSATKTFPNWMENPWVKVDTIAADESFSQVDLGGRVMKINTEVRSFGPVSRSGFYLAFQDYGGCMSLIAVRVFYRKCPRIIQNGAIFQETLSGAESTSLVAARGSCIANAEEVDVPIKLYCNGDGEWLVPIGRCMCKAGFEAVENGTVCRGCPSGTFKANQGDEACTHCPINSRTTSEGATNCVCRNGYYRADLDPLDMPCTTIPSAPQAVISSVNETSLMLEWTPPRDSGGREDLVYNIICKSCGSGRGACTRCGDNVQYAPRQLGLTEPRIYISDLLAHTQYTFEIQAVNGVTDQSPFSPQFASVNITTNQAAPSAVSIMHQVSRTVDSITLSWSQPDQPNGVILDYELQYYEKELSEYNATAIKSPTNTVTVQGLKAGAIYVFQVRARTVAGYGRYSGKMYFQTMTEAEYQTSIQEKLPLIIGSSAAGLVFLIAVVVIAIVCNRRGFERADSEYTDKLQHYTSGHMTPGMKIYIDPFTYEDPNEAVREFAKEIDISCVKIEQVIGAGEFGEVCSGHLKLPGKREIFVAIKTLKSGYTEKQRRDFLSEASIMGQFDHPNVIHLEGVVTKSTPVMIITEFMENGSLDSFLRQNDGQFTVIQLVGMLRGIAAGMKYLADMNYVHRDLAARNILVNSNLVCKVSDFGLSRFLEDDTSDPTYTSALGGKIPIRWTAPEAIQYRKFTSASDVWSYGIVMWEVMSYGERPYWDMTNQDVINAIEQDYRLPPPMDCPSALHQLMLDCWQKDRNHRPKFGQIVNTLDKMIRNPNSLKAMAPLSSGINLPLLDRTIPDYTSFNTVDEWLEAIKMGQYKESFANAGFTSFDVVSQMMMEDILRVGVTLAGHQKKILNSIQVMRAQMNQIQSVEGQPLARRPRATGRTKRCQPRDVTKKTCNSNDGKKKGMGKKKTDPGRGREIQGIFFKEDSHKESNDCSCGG

Question: `COc1cc2c(Oc3ccc(-c4nc5ccccc5s4)cc3F)ncnc2cc1OCCCN1CCN(C)CC1` was tested. Which residual activity [1] did it give?
Answer: 77%

Question: What about the residual activity [2] of the same compound?
Answer: 93%

Question: And the residual activity [3]?
Answer: 78%

Question: And the residual activity [4]?
Answer: 207%

Question: And the residual activity [5]?
Answer: 103%

Question: What about the residual activity [6] of the same compound?
Answer: 89%

Question: And the residual activity [7]?
Answer: 106%

Question: And the residual activity [8]?
Answer: 337%

Question: And the residual activity [9]?
Answer: 14%

Question: And the residual activity [10]?
Answer: 58%

Question: What about the residual activity [11] of the same compound?
Answer: 96%

Question: And the residual activity [12]?
Answer: 72%

Question: With `COc1cc2c(Oc3ccc(-c4nc5ccccc5s4)cc3)ncnc2cc1OCCCN1CCCC1` as the compound, how does the residual activity [1] read?
Answer: 91%

Question: What about the residual activity [2] of the same compound?
Answer: 91%

Question: And the residual activity [3]?
Answer: 187%

Question: What about the residual activity [4] of the same compound?
Answer: 292%

Question: And the residual activity [5]?
Answer: 97%

Question: And the residual activity [6]?
Answer: 117%

Question: And the residual activity [7]?
Answer: 94%

Question: What about the residual activity [8] of the same compound?
Answer: 337%

Question: And the residual activity [9]?
Answer: 101%

Question: What about the residual activity [10] of the same compound?
Answer: 81%

Question: What about the residual activity [11] of the same compound?
Answer: 83%

Question: And the residual activity [12]?
Answer: 98%

Question: What does the source list for `COc1cc2c(Oc3ccc(-c4nc5ccccc5s4)cc3)ncnc2cc1OCCCN1CCN(C)CC1`?
Answer: residual activity [1]: 76%; residual activity [2]: 84%; residual activity [3]: 155%; residual activity [4]: 136%; residual activity [5]: 100%; residual activity [6]: 117%; residual activity [7]: 99%; residual activity [8]: 350%; residual activity [9]: 55%; residual activity [10]: 68%; residual activity [11]: 87%; residual activity [12]: 86%
